{"source": "patent US20250034218A1", "about": "“ANTIMICROBIAL PEPTIDES” (BiomEdit, LLC, priority 2021, published 2025)", "key": {"Y. ruckeri": {"tested_on": "Y. ruckeri", "details": "injection before exposure to Y. ruckeri; compared to non-treated fish; cited from earlier work"}, "E. coli DH5alpha [1]": {"tested_on": "E. coli DH5alpha", "assay_type": "cell-based, Escherichia coli", "details": "peptide treated with trypsin at 37° C. before MIC assay", "method": "CAP18 peptide variants single mutants were evaluated for resistance to trypsin. Peptides were subjected to trypsin protease treatment and then assessed for bacterial cell killing (against E. coli) in a MIC assay.\n(§1) CAP18 variants were synthesized from GenScript, Inc, and solubilized in sterile purified water to a final concentration of 4 mg/ml. E. coli DH5alpha was grown overnight in 10 ml LB broth. Ten microliters of each CAP18 variant was treated with 2 μl (or 2 μl of the 10-fold diluted trypsin) of trypsin (0.25%, Sigma Aldrich) and incubated at 37° C. for 2 or 5 minutes in a PCR machine. The samples were then incubated at 98° C. for 5 minutes to inactivate trypsin. An MIC assay was set up using trypsin-treated CAP18 variants in a 96-well plate. Briefly, the peptides were serially diluted 2-fold in LB broth to achieve a final volume of 50 μl in each well and 50 μl of the E. coli DH5alpha culture adjusted to a concentration of 2×10^6 cells/ml was added into each well. Appropriate controls (media only control, no CAP18 control) were included on the same plate. The plates were incubated at 37° C. for 24-48 hours and MIC for each variant was recorded. The experiment was repeated 3 times."}, "Giardia trophozoites": {"tested_on": "Giardia trophozoites", "assay": "Giardia trophozoite test tube assay, light microscopy", "assay_type": "cell-based", "details": "AMP01 100 μM, FOR 5 μM", "method": "Test tube with a confluent layer of trophozoites is treated with AMP01 (100 μM). Light microscopy, counting of detached dead or alive (i.e. motile) trophozoites is then conducted. Formononetin (5 μM; FOR) is used for comparison as a positive control.\nThe changes in morphology were still visible one day after the treatment and are depicted in FIG. 3 (photographs all taken at 100×). After 1 d, the trophozoites in the control tube (FIG. 3A) were fully alive (and overgrowing), as expected. […] The different sizes of the trophozoites can be noted by comparing the white circles. Similar effects were observed using cytotoxic anti-variant surface protein antibodies (Hemphil et al. 1996)."}, "E. coli DH5alpha [2]": {"tested_on": "E. coli DH5alpha", "assay_type": "cell-based, Escherichia coli", "details": "peptide treated with proteinase K at 37° C. before MIC assay", "method": "CAP18 peptide variants single mutants were evaluated for resistance to proteinase K. Peptides were subjected to proteinase K treatment and then assessed for bacterial cell killing (against E. coli) in a MIC assay.\nas §1, with “μl” for “μl (or 2 μl”, “proteinase K (Qjagen, >600 mAU/ml)” for “the 10-fold diluted trypsin) of trypsin (0.25%, Sigma Aldrich)”, “proteinase K.” for “trypsin.”, “proteinase K-treated” for “trypsin-treated”"}, "Eimeria": {"tested_on": "Eimeria", "assay": "Inhibition of Eimeria parasites", "assay_type": "cell-based", "details": "Eimeria (Coccidiosis, poultry)", "method": "The effect of Cap 18 peptides and any variants thereof is tested on Eimeria. An exemplary study is provided with results depicted in FIG. 4. Three independent experiments were conducted with CAP18 peptides—designated Cap18a, Cap18b and Cap18c. The CAP18 peptides were compared with monensin as a positive control. Three independent experiments with monensin (designated Mona, Monb and Monc)."}, "Giardia": {"tested_on": "Giardia", "assay": "Giardia plate assay, % of control (Table 3)", "assay_type": "cell-based", "details": "plate G7", "excerpt": "Data comparing AMP01 (wild type CAP 18 peptide (SEQ ID NO: 1) with various other agents is tabulated in Table 3. NTZ corresponds to nitazoxanide. ALB corresponds to albendazole."}, "[3]": {"tested_on": "Methanobacterium bryantii", "assay": "In-vitro screening, growth of rumen methanogen", "assay_type": "cell-based", "details": "FIGS. 10A and 10B; BES as positive control", "excerpt": "BES, a known methanogen inhibitor shown in FIG. 10C, was used as a positive control."}, "P. mutlocida": {"tested_on": "P. mutlocida", "assay_type": "cell-based, Pasteurella multocida", "method": "(§2) CAP18 peptide (wild type peptide also herein designated as AMP01) has application and utility for multiple indications in livestock, poultry & aqua species. […] Cap18 peptide is active against viruses of significance for the animal industry, such as PRRSV (PRRS, swine) (FIG. 2C). […] FIG. 3 depicts activity of CAP18 peptide (AMP01) against Giardia.\n(§3) Antimicrobial effect of CAP18 against BRD pathogens M. haemolytica and P. multocida was evaluated."}, "[4]": {"details": "90° C. for 30 minutes; cited from earlier work"}, "[5]": {"tested_on": "porcine reproductive and respiratory syndrome virus (PRRSV)", "assay": "Inhibition of PRRS virus infection", "assay_type": "cell-based", "details": "1:2 and 1:4 diluted", "method": "Antibacterial peptide CAP18 was evaluated for activity inhibiting virus, particularly its antiviral effect on porcine reproductive and respiratory syndrome virus (PRRSV). Results are provided in Figure S. AMP01 polypeptide was evaluated at 1:2 and 1:4 diluted and shown to be effective."}, "M. haemolytica": {"tested_on": "M. haemolytica", "assay_type": "cell-based, Mannheimia haemolytica", "details": "plate assay, FIG. 2B", "method": "as §2, §3"}, "E. coli DH5 alpha": {"tested_on": "E. coli DH5 alpha", "assay_type": "cell-based, Escherichia coli", "method": "A MIC assay was set up using heat treated CAP18 variants in a 96-well plate. […] Appropriate controls (media only control, no CAP18 control) were included on the same plate. The plates were incubated at 37° C. for 24-48 hours and MIC for each variant was recorded. The experiment was repeated 3 times."}}, "note": "Ends that are not written are not given here."}
{"sequence": "GLRKRLRKFRNKIKEKLKKIGQKIQGLLPKLAPRTDY [AMP01]", "values": [{"measurement": "mortality", "setting": "Y. ruckeri", "result": "lower mortality"}, {"measurement": "Resistance to trypsin (MIC, ug/ml)", "setting": "E. coli DH5alpha [1]", "result": 25, "unit": "µg/mL"}, {"measurement": "detachment of trophozoites", "setting": "Giardia trophozoites; after 1 h", "result": "nearly complete detachment"}, {"measurement": "morphology and motility of detached trophozoites", "setting": "Giardia trophozoites; after 1 h", "result": "crumbled, shrunken and immotile"}, {"measurement": "state of trophozoites", "setting": "Giardia trophozoites; after 1 d", "result": "dead, shrunken and started to disintegrate"}, {"measurement": "Resistance to proteinase K (MIC, ug/ml)", "setting": "E. coli DH5alpha [2]", "result": ">400", "unit": "µg/mL"}, {"measurement": "inhibiting activity of parasites", "setting": "Eimeria", "result": "effective in inhibiting activity"}, {"measurement": "% of control MV", "setting": "Giardia; Conc 10 (uM or %)", "result": 141.1, "unit": "%"}, {"measurement": "% of control MV", "setting": "Giardia; Conc 100 (uM or %)", "result": 1.0, "unit": "%"}, {"measurement": "growth of rumen methanogen", "setting": "[3]", "result": "inhibits the growth"}, {"measurement": "MIC", "setting": "P. mutlocida", "result": "4 to 8", "unit": "µg/mL"}, {"measurement": "antimicrobial activity after heat treatment", "setting": "[4]", "result": "retain full antimicrobial activity"}, {"measurement": "antiviral effect on PRRSV", "setting": "[5]", "result": "effective"}, {"measurement": "MIC", "setting": "M. haemolytica", "result": "4 to 8", "unit": "µg/mL"}, {"measurement": "Thermotolerance at 90 for 5 minutes (MIC, ug/ml)", "setting": "E. coli DH5 alpha", "result": 200, "unit": "µg/mL"}]}
